Measurements from US10517889B2, “Modulators of SMAD7 expression” (Ionis Pharmaceuticals, Inc., priority 2017, dated 2019).
Strand notation (5' to 3'): a small letter for the sugar, then the base; units joined by * are phosphorothioate-linked, units joined directly phosphodiester-linked; [ ] holds rarer units or linkages, { } end groups; capitals alone tell only the bases. k = constrained ethyl (cEt); [5mC] = 5-methylcytosine; d = 2'-deoxy (DNA)

System: human SMAD7 mRNA
Experiment: Antisense inhibition of human SMAD7 mRNA expression in Hep3B cells by 3-10-3 cEt gapmers, 10,000 nM, electroporation (Example 2)
Assay type: cell-based
Conditions: approximately 24 hours
Method in brief: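 Hep3B, 20,000 cells/well; electroporation, 10,000 nM ASO; ~24 h. Readout: SMAD7 mRNA by qRT-PCR (RTS5062), RIBOGREEN-normalised; % inhibition vs untreated.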

[1] = Hep3B cells, electroporation with 10,000 nM antisense oligonucleotide, SMAD7 mRNA by RT-PCR (RTS5062), relative to untreated control cells
[2] = Hep3B cells, 10,000 nM antisense oligonucleotide, electroporation, RT-PCR primer probe set RTS5062, relative to untreated control cells
[3] = Hep3B cells, electroporation with 10,000 nM antisense oligonucleotide, primer probe set RTS5062, relative to untreated control cells

798901 (k[5mC]*k[5mC]*kT*d[5mC]*dT*dA*dG*d[5mC]*d[5mC]*dA*dG*d[5mC]*dA*k[5mC]*kG*kG; antisense) [compound 798901]
% Inhibition [1]: 30%

798902 (kT*kG*kA*d[5mC]*d[5mC]*dT*d[5mC]*dT*dA*dG*d[5mC]*d[5mC]*dA*kG*k[5mC]*kA; antisense) [compound 798902]
% Inhibition [1]: 54%

798903 (kA*kA*kG*dA*dT*dG*dA*d[5mC]*d[5mC]*dT*d[5mC]*dT*dA*kG*k[5mC]*k[5mC]; antisense) [compound 798903]
% Inhibition [1]: 48%

798904 (kT*kT*kG*dA*dA*dG*dA*dT*dG*dA*d[5mC]*d[5mC]*dT*k[5mC]*kT*kA; antisense) [compound 798904]
% Inhibition [1]: 23%

798905 (kG*kG*k[5mC]*dT*dG*dT*dT*dG*dA*dA*dG*dA*dT*kG*kA*k[5mC]; antisense) [compound 798905]
% Inhibition [1]: 35%

798906 (kG*k[5mC]*kT*dA*d[5mC]*d[5mC]*dG*dG*d[5mC]*dT*dG*dT*dT*kG*kA*kA; antisense) [compound 798906]
% Inhibition [2]: 0%

798907 (kG*k[5mC]*kG*dG*d[5mC]*dT*dA*d[5mC]*d[5mC]*dG*dG*d[5mC]*dT*kG*kT*kT; antisense) [compound 798907]
% Inhibition [2]: 0%

798908 (k[5mC]*kG*k[5mC]*dG*dG*d[5mC]*dT*dA*d[5mC]*d[5mC]*dG*dG*d[5mC]*kT*kG*kT; antisense) [compound 798908]
% Inhibition [2]: 0%

798909 (kA*k[5mC]*kG*d[5mC]*dG*dG*d[5mC]*dT*dA*d[5mC]*d[5mC]*dG*dG*k[5mC]*kT*kG; antisense) [compound 798909]
% Inhibition [2]: 42%

798910 (k[5mC]*kA*k[5mC]*dG*d[5mC]*dG*dG*d[5mC]*dT*dA*d[5mC]*d[5mC]*dG*kG*k[5mC]*kT; antisense) [compound 798910]
% Inhibition [2]: 42%

798911 (kG*k[5mC]*kA*d[5mC]*dG*d[5mC]*dG*dG*d[5mC]*dT*dA*d[5mC]*d[5mC]*kG*kG*k[5mC]; antisense) [compound 798911]
% Inhibition [2]: 0%

798912 (kT*k[5mC]*k[5mC]*dG*d[5mC]*dA*d[5mC]*dG*d[5mC]*dG*dG*d[5mC]*dT*kA*k[5mC]*k[5mC]; antisense) [compound 798912]
% Inhibition [2]: 22%

798913 (k[5mC]*k[5mC]*k[5mC]*dT*d[5mC]*d[5mC]*dG*d[5mC]*dA*d[5mC]*dG*d[5mC]*dG*kG*k[5mC]*kT; antisense) [compound 798913]
% Inhibition [2]: 21%

798914 (kG*kT*k[5mC]*d[5mC]*d[5mC]*d[5mC]*dT*d[5mC]*d[5mC]*dG*d[5mC]*dA*d[5mC]*kG*k[5mC]*kG; antisense) [compound 798914]
% Inhibition [2]: 56%

798915 (kT*k[5mC]*kT*dG*dT*d[5mC]*d[5mC]*d[5mC]*d[5mC]*dT*d[5mC]*d[5mC]*dG*k[5mC]*kA*k[5mC]; antisense) [compound 798915]
% Inhibition [1]: 7%

798916 (k[5mC]*kG*k[5mC]*dT*d[5mC]*dT*dG*dT*d[5mC]*d[5mC]*d[5mC]*d[5mC]*dT*k[5mC]*k[5mC]*kG; antisense) [compound 798916]
% Inhibition [1]: 13%

798917 (kG*k[5mC]*kT*d[5mC]*dA*d[5mC]*dG*d[5mC]*dT*d[5mC]*dT*dG*dT*k[5mC]*k[5mC]*k[5mC]; antisense) [compound 798917]
% Inhibition [1]: 0%

798918 (kT*k[5mC]*kA*dG*d[5mC]*dT*d[5mC]*dA*d[5mC]*dG*d[5mC]*dT*d[5mC]*kT*kG*kT; antisense) [compound 798918]
% Inhibition [1]: 44%

798919 (kT*kG*k[5mC]*dT*d[5mC]*dA*dG*d[5mC]*dT*d[5mC]*dA*d[5mC]*dG*k[5mC]*kT*k[5mC]; antisense) [compound 798919]
% Inhibition [1]: 45%

798920 (kG*k[5mC]*k[5mC]*dT*dG*d[5mC]*dT*d[5mC]*dA*dG*d[5mC]*dT*d[5mC]*kA*k[5mC]*kG; antisense) [compound 798920]
% Inhibition [1]: 58%

798921 (kG*kG*k[5mC]*d[5mC]*dT*dG*d[5mC]*dT*d[5mC]*dA*dG*d[5mC]*dT*k[5mC]*kA*k[5mC]; antisense) [compound 798921]
% Inhibition [1]: 42%

798922 (kA*kA*kG*dT*dG*dT*dG*dG*d[5mC]*d[5mC]*dT*dG*d[5mC]*kT*k[5mC]*kA; antisense) [compound 798922]
% Inhibition [1]: 59%

798923 (kT*kT*kG*dA*dA*dG*dT*dG*dT*dG*dG*d[5mC]*d[5mC]*kT*kG*k[5mC]; antisense) [compound 798923]
% Inhibition [1]: 54%

798924 (kA*kG*kT*dT*dT*dG*dA*dA*dG*dT*dG*dT*dG*kG*k[5mC]*k[5mC]; antisense) [compound 798924]
% Inhibition [3]: 43%

798925 (kA*kG*kT*dA*dG*dT*dT*dT*dG*dA*dA*dG*dT*kG*kT*kG; antisense) [compound 798925]
% Inhibition [2]: 0%

798926 (antisense k[5mC]*kA*kA*dA*dG*dT*dA*dG*dT*dT*dT*dG*dA*kA*kG*kT) [compound 798926]
% Inhibition [2]: 17%

798927 (antisense k[5mC]*kA*kG*d[5mC]*dA*dA*dA*dG*dT*dA*dG*dT*dT*kT*kG*kA) [compound 798927]
% Inhibition [2]: 0%

798928 (antisense kT*kA*kG*d[5mC]*dA*dG*d[5mC]*dA*dA*dA*dG*dT*dA*kG*kT*kT) [compound 798928]
% Inhibition [2]: 6%

798929 (antisense kT*kA*kT*dT*dA*dG*d[5mC]*dA*dG*d[5mC]*dA*dA*dA*kG*kT*kA) [compound 798929]
% Inhibition [2]: 41%

798930 (antisense kG*kA*kA*dA*dA*dT*dA*dT*dT*dA*dG*d[5mC]*dA*kG*k[5mC]*kA) [compound 798930]
% Inhibition [2]: 62%

798932 (antisense k[5mC]*kT*k[5mC]*dA*dG*dG*dA*dG*dG*dA*dA*dA*dA*kT*kA*kT) [compound 798932]
% inhibition of SMAD7 mRNA expression [3]: 0%

798933 (antisense kG*k[5mC]*kA*d[5mC]*dT*d[5mC]*dA*dG*dG*dA*dG*dG*dA*kA*kA*kA) [compound 798933]
% inhibition of SMAD7 mRNA expression [3]: 52%

798934 (antisense kG*k[5mC]*kA*dA*dG*d[5mC]*dA*d[5mC]*dT*d[5mC]*dA*dG*dG*kA*kG*kG) [compound 798934]
% inhibition of SMAD7 mRNA expression [3]: 40%

798935 (antisense kA*kA*kA*dG*d[5mC]*dA*dA*dG*d[5mC]*dA*d[5mC]*dT*d[5mC]*kA*kG*kG) [compound 798935]
% Inhibition [3]: 48%

798936 (antisense kG*k[5mC]*kA*dT*dG*dA*dA*dA*dA*dG*d[5mC]*dA*dA*kG*k[5mC]*kA) [compound 798936]
% Inhibition [3]: 14%

798937 (antisense kG*kT*kT*dT*dG*d[5mC]*dA*dT*dG*dA*dA*dA*dA*kG*k[5mC]*kA) [compound 798937]
% Inhibition [3]: 35%

798938 (antisense kA*k[5mC]*k[5mC]*dA*dA*dA*dG*dA*dG*dT*dT*dT*dG*k[5mC]*kA*kT) [compound 798938]
% Inhibition [3]: 15%

798939 (antisense kA*k[5mC]*kG*dA*d[5mC]*d[5mC]*dA*dA*dA*dG*dA*dG*dT*kT*kT*kG) [compound 798939]
% Inhibition [3]: 46%

798940 (antisense kA*kA*kA*dA*d[5mC]*dG*dA*d[5mC]*d[5mC]*dA*dA*dA*dG*kA*kG*kT) [compound 798940]
% Inhibition [3]: 29%

798941 (antisense kA*kA*kA*dA*dA*dA*dA*d[5mC]*dG*dA*d[5mC]*d[5mC]*dA*kA*kA*kG) [compound 798941]
% Inhibition [3]: 40%

798942 (antisense k[5mC]*kG*kA*dG*dA*dA*dG*dA*dA*dG*dA*dA*dA*kA*k[5mC]*k[5mC]) [compound 798942]
% Inhibition [3]: 35%

798943 (antisense k[5mC]*kG*kA*dG*dG*dA*d[5mC]*dG*dA*dG*dA*dA*dG*kA*kA*kG) [compound 798943]
% inhibition of SMAD7 mRNA expression [3]: 13%

798944 (antisense kA*kA*kA*d[5mC]*dG*dA*dG*dG*dA*d[5mC]*dG*dA*dG*kA*kA*kG) [compound 798944]
% inhibition of SMAD7 mRNA expression [3]: 3%

798945 (antisense k[5mC]*kA*k[5mC]*dA*dA*dA*d[5mC]*dG*dA*dG*dG*dA*d[5mC]*kG*kA*kG) [compound 798945]
% inhibition of SMAD7 mRNA expression [3]: 19%

798946 (antisense kG*kA*kA*d[5mC]*dA*d[5mC]*dA*dA*dA*d[5mC]*dG*dA*dG*kG*kA*k[5mC]) [compound 798946]
% inhibition of SMAD7 mRNA expression [3]: 4%

798947 (antisense kA*k[5mC]*kA*dG*dA*dA*d[5mC]*dA*d[5mC]*dA*dA*dA*d[5mC]*kG*kA*kG) [compound 798947]
% inhibition of SMAD7 mRNA expression [3]: 52%

798948 (antisense kG*k[5mC]*kG*dA*dA*dA*d[5mC]*dA*dA*dA*dA*d[5mC]*dA*kG*kA*kA) [compound 798948]
% inhibition of SMAD7 mRNA expression [3]: 56%

798949 (antisense kA*kG*kA*dG*d[5mC]*dG*dA*dA*dA*d[5mC]*dA*dA*dA*kA*k[5mC]*kA) [compound 798949]
% inhibition of SMAD7 mRNA expression [3]: 55%

798950 (antisense k[5mC]*kA*kA*dA*dG*dA*dG*d[5mC]*dG*dA*dA*dA*d[5mC]*kA*kA*kA) [compound 798950]
% inhibition of SMAD7 mRNA expression [3]: 0%

798951 (antisense kT*k[5mC]*kT*d[5mC]*dA*dA*dA*dG*dA*dG*d[5mC]*dG*dA*kA*kA*k[5mC]) [compound 798951]
% inhibition of SMAD7 mRNA expression [3]: 37%

798952 (antisense kT*kA*kT*dT*dT*d[5mC]*dT*d[5mC]*dA*dA*dA*dG*dA*kG*k[5mC]*kG) [compound 798952]
% inhibition of SMAD7 mRNA expression [3]: 61%

798953 (antisense kA*kG*k[5mC]*dT*dA*dT*dT*dT*d[5mC]*dT*d[5mC]*dA*dA*kA*kG*kA) [compound 798953]
% Inhibition [3]: 17%
